Counter-ions that a name gives are not always drawn.

The test system of this test is ACHN cell line. In words: drug screen of the SelleckChem kinase inhibitor library with and without 5 uM SU-329, Cell-Titer Glo after 5 days. To be noted: kinase inhibitor at 200 nM with and without 5 uM SU329; ACHN cell line; 5 days; Cell-Titer Glo. Type of test: cell-based.
Compound `CN(C)CCOc1ccc(-c2nc(-c3ccncc3)c(-c3ccc4c(c3)CC/C4=N\O)[nH]2)cc1` [SB590885] showed a log2fc of 0.2113.

Turning to `Cc1ccc(NC(=O)c2cccc(C(C)(C)C#N)c2)cc1Nc1ccc2ncn(C)c(=O)c2c1` [AZ 628], the log2fc was 0.4319.

In turn, `CN1CCC(CNc2ccc3ncc(-c4cccc(OC(F)(F)F)c4)n3n2)CC1` [SGI-1776 free base] yielded a log2fc of −0.0254.

The compound `Cc1ccc(NC(=O)c2ccc(CN3CCN(C)CC3)cc2)cc1Nc1nccc(-c2cccnc2)n1` [Imatinib Mesylate (STI571), imatinib, reference compound] yielded a log2fc of 0.1536.

As to PF-477736, the log2fc was −2.035.

In the case of `Nc1nc(Nc2ccc(S(N)(=O)=O)cc2)nn1C(=O)c1c(F)cccc1F` [JNJ-7706621], the log2fc is recorded as 0.3857.

For `FC(F)(F)c1ccc(/C=C/c2nc(COc3ccc(CCCCn4ccnn4)cc3)co2)cc1` [Mubritinib (TAK 165)], the log2fc is listed as 0.225.

As to `CC[C@@H]1C(=O)N(C)c2cnc(Nc3ccc(C(=O)N[C@H]4CC[C@H](N5CCN(CC6CC6)CC5)CC4)cc3OC)nc2N1C(C)C` [Volasertib (BI 6727)], the log2fc amounted to 0.6372.

`CC(C)NC[C@@H](C(=O)N1CCN(c2ncnc3c2[C@H](C)C[C@H]3O)CC1)c1ccc(Cl)cc1` [Ipatasertib (GDC-0068)]: the log2fc is listed as −0.5082.

`Nc1ccc(C(=O)Nc2cccc(-c3nc(N4CCOCC4)c4oc5ncccc5c4n3)c2)cn1` [YM201636] displayed a log2fc of −0.5268.

Turning to `OCCn1cc(-c2ccc3c(c2)CC/C3=N\O)c(-c2ccncc2)n1` [GDC-0879], the log2fc was 0.3592.

The compound `C[C@H](Nc1ncnc2nc[nH]c12)c1cc2cccc(Cl)c2c(=O)n1-c1ccccc1` [Duvelisib (IPI-145, INK1197)] had a log2fc of −0.2128.

With `Cc1cc(Nc2nc(N[C@@H](C)c3ccc(F)cc3)c(C#N)cc2F)n[nH]1` [AZ 960], the log2fc is given as 0.979.

The compound `Nc1ncnc2c1c(-c1cnc3[nH]ccc3c1)nn2C1CCCC1` [PP121] came in with a log2fc of −0.5206.

As for `FC(F)c1nc2ccccc2n1-c1nc(N2CCOCC2)nc(N2CCOCC2)n1` [ZSTK474], the log2fc is on record as −0.8509.

The compound `CN(c1ncccc1CNc1nc(Nc2ccc3c(c2)CC(=O)N3)ncc1C(F)(F)F)S(C)(=O)=O` [PF-00562271] displayed a log2fc of 0.8274.

The compound `CC(C)(C)n1nc(-c2ccc(Cl)cc2)c2c(N)ncnc21` [PP2] returned a log2fc of −0.01088.

Consider `CN1CCN(c2nc(C3=C(c4c[nH]c5ccccc45)C(=O)NC3=O)c3ccccc3n2)CC1` [Sotrastaurin], for which the log2fc was found to be 0.054.

As to `CCn1c(-c2nonc2N)nc2c(C#CC(C)(C)O)ncc(OC[C@H]3CCCNC3)c21` [GSK690693], the log2fc was −0.5999.

In turn, `CCc1cncnc1N1CCN(Cc2nc3ccc(C(F)(F)F)cc3[nH]2)CC1` [PF-4708671] gave a log2fc of 0.5187.

`CS(=O)(=O)CCNCc1ccc(-c2ccc3ncnc(Nc4ccc(OCc5cccc(F)c5)c(Cl)c4)c3c2)o1` [Lapatinib (GW-572016) Ditosylate, lapatinib, reference compound] displayed a log2fc of 0.212.

As to `C=CC(=O)Nc1cccc(Nc2nc(Nc3ccc(N4CCN(C(C)=O)CC4)cc3OC)ncc2C(F)(F)F)c1` [Rociletinib (CO-1686, AVL-301)], the log2fc is reported as −0.001899.

With `C[C@]1(O)C[C@@H](c2nc(-c3ccc4ccc(-c5ccccc5)nc4c3)c3c(N)nccn32)C1` [Linsitinib (OSI-906)], the log2fc was 0.08978.

Consider `CNC(=O)c1c(F)cccc1Nc1nc(Nc2cc3c(cc2OC)CCN3C(=O)CN(C)C)nc2[nH]ccc12` [GSK1838705A], for which the log2fc is listed as −0.03081.

Turning to `COc1cc2ncnc(Nc3ccc(F)c(Cl)c3)c2cc1OCCCN1CCOCC1` [Gefitinib (ZD1839)], the log2fc is listed as 0.4905.

`NCC(=O)Nc1ccc(-n2nc(C(F)(F)F)cc2-c2ccc3c(ccc4ccccc43)c2)cc1` [OSU-03012 (AR-12)] yielded a log2fc of 0.7911.

Values taken from patent publication US12195490B2, “STRAD-binding agents and uses thereof” (The Regents of the University of California, priority 2020, dated 2025).
